Laboratory results: ChEMBL document CHEMBL4831544, “Discovery of IHMT-EZH2-115 as a Potent and Selective Enhancer of Zeste Homolog 2 (EZH2) Inhibitor for the Treatment of B-Cell Lymphomas” (J Med Chem, 2021)

Assay: Antiproliferative activity against human WSUDLCL2 cells assessed as inhibition of cell growth measured after 6 days by CellTiter-Glo luminescent assay
Assay type: functional
Conditions: WSUDLCL2, 144 h, time 6 day

Row | Compound | GI50 [µM]
1 | Cc1cc(C)c(CNC(=O)c2cc(-c3ccc(CN4CCOCC4)cc3)cc3c2CCN3C(=O)c2ccco2)c(=O)[nH]1 | 51.6
2 | CCN(C(=O)C1CC1)c1cc(-c2ccc(N3CCNCC3)cc2)cc(C(=O)NCc2c(C)cc(C)[nH]c2=O)c1C | 0.2
3 | CCN(C(=O)C1CC1)c1cc(-c2ccc(N3CCN(CC4CC4)CC3)cc2)cc(C(=O)NCc2c(C)cc(C)[nH]c2=O)c1C | 0.1
4 | Cc1cc(C)c(CNC(=O)c2cc(-c3ccc(CN4CCOCC4)cc3)cc3c2CCN3C(=O)C2CCCC2)c(=O)[nH]1 | 44
5 | Cc1cc(C)c(CNC(=O)c2cc(-c3ccc(CN4CCOCC4)cc3)cc3c2CCN3C(=O)C2CC2)c(=O)[nH]1 | 50.5
6 | CCN(C(=O)C1CCCCC1)c1cc(-c2ccc(CN3CCOCC3)cc2)cc(C(=O)NCc2c(C)cc(C)[nH]c2=O)c1C | 32.4
7 | Cc1cc(C)c(CNC(=O)c2cc(-c3ccc(CN4CCOCC4)cc3)cc3c2CCN3C(=O)C2CCOCC2)c(=O)[nH]1 | 94.5
8 | CCN(C(=O)C1CCCC1)c1cc(-c2ccc(CN3CCOCC3)cc2)cc(C(=O)NCc2c(C)cc(C)[nH]c2=O)c1C | 0.3
9 | CCN(C(=O)C1CC1)c1cc(-c2ccc(N3CCOCC3)cc2)cc(C(=O)NCc2c(C)cc(C)[nH]c2=O)c1C | 0.2
10 | CCN(C(=O)C1CCOCC1)c1cc(-c2ccc(CN3CCOCC3)cc2)cc(C(=O)NCc2c(C)cc(C)[nH]c2=O)c1C | 16.2
11 | CCN(C(=O)C1CC1)c1cc(-c2ccc(NC(=O)CCN(C)C)cc2)cc(C(=O)NCc2c(C)cc(C)[nH]c2=O)c1C | 1.8
12 | CCN(C(=O)c1ccccc1)c1cc(-c2ccc(CN3CCOCC3)cc2)cc(C(=O)NCc2c(C)cc(C)[nH]c2=O)c1C | 34.7
13 | CCN(C(=O)C1CC1)c1cc(-c2ccc(NC(=O)C3CCOCC3)cc2)cc(C(=O)NCc2c(C)cc(C)[nH]c2=O)c1C | 0.7

Assay: Half life in rat at 10 mg/kg, po
Assay type: ADME, organism-based
Conditions: in vivo

Row | half-life [min] | Compound
14 | 61.8 | CCN(C(=O)C1CCCC1)c1cc(-c2ccc(CN3CCOCC3)cc2)cc(C(=O)NCc2c(C)cc(C)[nH]c2=O)c1C

Assay: Cmax in rat at 10 mg/kg, po
Assay type: ADME, organism-based
Parameters: route oral, dose 10 mg/kg
Conditions: in vivo

Row | Cmax [ng/mL] | Compound
15 | 473 | CCN(C(=O)C1CCCC1)c1cc(-c2ccc(CN3CCOCC3)cc2)cc(C(=O)NCc2c(C)cc(C)[nH]c2=O)c1C

Assay: AUC (0 to infinity) in rat at 10 mg/kg, po
Assay type: ADME, organism-based
Parameters: time infinity, route oral, dose 10 mg/kg
Conditions: in vivo

Row | AUC(0-inf) [ng·h/mL] | Compound
16 | 406 | CCN(C(=O)C1CCCC1)c1cc(-c2ccc(CN3CCOCC3)cc2)cc(C(=O)NCc2c(C)cc(C)[nH]c2=O)c1C

Assay: Apparent volume of distribution in rat at 10 mg/kg, po
Assay type: ADME, organism-based
Conditions: in vivo

Row | Vz [L/kg] | Compound
17 | 53.401 | CCN(C(=O)C1CCCC1)c1cc(-c2ccc(CN3CCOCC3)cc2)cc(C(=O)NCc2c(C)cc(C)[nH]c2=O)c1C

Assay: Clearance in rat at 10 mg/kg, po
Assay type: ADME, organism-based
Conditions: in vivo

Row | CL/F [mL/min/kg] | Compound
18 | 542 | CCN(C(=O)C1CCCC1)c1cc(-c2ccc(CN3CCOCC3)cc2)cc(C(=O)NCc2c(C)cc(C)[nH]c2=O)c1C

Assay: Oral bioavailability in rat at 10 mg/kg
Assay type: ADME, organism-based
Conditions: in vivo

Row | bioavailability [%] | Compound
19 | 15.1 | CCN(C(=O)C1CCCC1)c1cc(-c2ccc(CN3CCOCC3)cc2)cc(C(=O)NCc2c(C)cc(C)[nH]c2=O)c1C

Assay: Half life in rat at 1 mg/kg, iv
Assay type: ADME, organism-based
Conditions: in vivo

Row | half-life [min] | Compound
20 | 22.8 | CCN(C(=O)C1CCCC1)c1cc(-c2ccc(CN3CCOCC3)cc2)cc(C(=O)NCc2c(C)cc(C)[nH]c2=O)c1C

Assay: Cmax in rat at 1 mg/kg, iv
Assay type: ADME, organism-based
Parameters: route intravenous, dose 1 mg/kg
Conditions: in vivo

Row | Cmax [ng/mL] | Compound
21 | 824 | CCN(C(=O)C1CCCC1)c1cc(-c2ccc(CN3CCOCC3)cc2)cc(C(=O)NCc2c(C)cc(C)[nH]c2=O)c1C

Assay: AUC (0 to infinity) in rat at 1 mg/kg, iv
Assay type: ADME, organism-based
Parameters: route intravenous, time infinity, dose 1 mg/kg
Conditions: in vivo

Row | AUC(0-inf) [ng·h/mL] | Compound
22 | 269 | CCN(C(=O)C1CCCC1)c1cc(-c2ccc(CN3CCOCC3)cc2)cc(C(=O)NCc2c(C)cc(C)[nH]c2=O)c1C

Assay: Apparent volume of distribution in rat at 1 mg/kg, iv
Assay type: ADME, organism-based
Conditions: in vivo, read-out: Vz

Row | Vd [L/kg] | Compound
23 | 2.03 | CCN(C(=O)C1CCCC1)c1cc(-c2ccc(CN3CCOCC3)cc2)cc(C(=O)NCc2c(C)cc(C)[nH]c2=O)c1C

Assay: Clearance in rat at 1 mg/kg, iv
Assay type: ADME, organism-based
Conditions: in vivo

Row | clearance [mL/min/kg] | Compound
24 | 62.7 | CCN(C(=O)C1CCCC1)c1cc(-c2ccc(CN3CCOCC3)cc2)cc(C(=O)NCc2c(C)cc(C)[nH]c2=O)c1C
